Laboratory results: ChEMBL document CHEMBL1201862, “PubChem BioAssay data set” (2004)
Active and inactive are the calls of the source.

Columns and labels:
[1] = Luminescence Cell-Based Dose Retest to Confirm Inhibitors of Cancer Stem Cells. [Related pubchem assays (depositor defined):AID2717, AID2721]; assay type: functional; settings: Homo sapiens
cells = assay type: functional, cell-based
HEK293 = test: SAR Analysis of small molecule inhibitors of T-cell specific antigen receptor-induced NF-kB activation in a HEK-293T cell line using a luminescence assay - Set 2. [Related pubchem assays (depositor defined):AID435003, AID435012, AID489026]; assay type: functional, cell-based; settings: Homo sapiens
[2] = HepG2 cell cytotoxicity, dose response, cytotoxicity control for Shn3 inhibitor project, CellTiter-Glo, cherry-picked (AID 624134); assay type: functional, cell-based
[3] = control 3'UTR Renilla luciferase suppression, dose response, counter-screen for Shn3 inhibitor project, cell-based, Clone20-Shn3RL, cherry-picked (AID 624133); assay type: functional
[4] = biological target: Cystic fibrosis transmembrane conductance regulator/Golgi-associated PDZ and coiled-coil motif-containing protein (Homo sapiens, UniProt P13569+Q9HD26); test: CAL PDZ peptide-binding inhibitors, dose response, biochemical, fluorescence polarization, Cerulean-tagged CAL PDZ, cherry-picks (AID 504773)
Chain of Cystic fibrosis transmembrane conductance regulator/Golgi-associated PDZ and coiled-coil motif-containing protein (P13569 whole entry, other chains not shown): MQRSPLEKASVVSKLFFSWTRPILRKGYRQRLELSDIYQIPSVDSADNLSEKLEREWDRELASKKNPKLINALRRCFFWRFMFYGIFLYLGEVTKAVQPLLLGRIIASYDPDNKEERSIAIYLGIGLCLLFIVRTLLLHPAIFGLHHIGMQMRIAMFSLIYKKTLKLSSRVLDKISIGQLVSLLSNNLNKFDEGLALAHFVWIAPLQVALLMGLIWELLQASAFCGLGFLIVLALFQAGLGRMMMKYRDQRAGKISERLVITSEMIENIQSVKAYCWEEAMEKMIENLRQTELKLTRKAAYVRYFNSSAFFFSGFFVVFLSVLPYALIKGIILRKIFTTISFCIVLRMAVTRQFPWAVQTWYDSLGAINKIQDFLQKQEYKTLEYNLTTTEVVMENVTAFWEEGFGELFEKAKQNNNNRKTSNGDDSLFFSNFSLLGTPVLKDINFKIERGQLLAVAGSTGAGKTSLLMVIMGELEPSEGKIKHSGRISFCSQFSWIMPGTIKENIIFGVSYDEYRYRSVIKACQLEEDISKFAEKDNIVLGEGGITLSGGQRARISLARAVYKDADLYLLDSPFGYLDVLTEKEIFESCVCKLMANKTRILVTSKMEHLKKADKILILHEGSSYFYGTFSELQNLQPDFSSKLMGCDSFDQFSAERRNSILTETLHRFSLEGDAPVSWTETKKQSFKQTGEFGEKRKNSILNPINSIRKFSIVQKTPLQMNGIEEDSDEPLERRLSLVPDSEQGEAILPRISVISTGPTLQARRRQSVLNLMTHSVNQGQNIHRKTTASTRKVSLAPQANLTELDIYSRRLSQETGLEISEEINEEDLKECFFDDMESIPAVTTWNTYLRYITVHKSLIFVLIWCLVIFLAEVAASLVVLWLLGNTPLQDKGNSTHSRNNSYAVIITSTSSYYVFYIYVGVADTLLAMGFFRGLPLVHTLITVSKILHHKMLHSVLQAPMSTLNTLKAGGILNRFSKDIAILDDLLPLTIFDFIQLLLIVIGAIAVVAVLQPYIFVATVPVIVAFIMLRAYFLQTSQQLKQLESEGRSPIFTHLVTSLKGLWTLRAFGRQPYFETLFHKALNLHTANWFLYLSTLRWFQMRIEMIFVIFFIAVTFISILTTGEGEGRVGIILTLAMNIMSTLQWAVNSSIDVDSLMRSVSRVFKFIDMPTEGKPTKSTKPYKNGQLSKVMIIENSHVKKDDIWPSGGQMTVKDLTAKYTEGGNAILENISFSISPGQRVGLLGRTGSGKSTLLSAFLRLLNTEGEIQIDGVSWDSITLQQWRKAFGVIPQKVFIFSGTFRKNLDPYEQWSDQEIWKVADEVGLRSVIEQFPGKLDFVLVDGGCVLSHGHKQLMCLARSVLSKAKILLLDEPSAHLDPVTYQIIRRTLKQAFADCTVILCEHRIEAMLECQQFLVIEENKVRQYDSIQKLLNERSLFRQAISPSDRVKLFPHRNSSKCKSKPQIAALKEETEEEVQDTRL

ORF 73 = ORF 73 (Human herpesvirus 8, UniProt O40947); test: inhibitors of C-LANA binding to LBS DNA, dose response, biochemical, fluorescence polarization, cherry-picked samples (AID 504725); parameters: species or system Human gammaherpesvirus 8;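 also: fluorescence polarization of a labeled DNA duplex reporting LANA DNA binding; potency is for inhibitors that block LANA binding to the DNA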
Chain of ORF 73 (O40947 whole entry): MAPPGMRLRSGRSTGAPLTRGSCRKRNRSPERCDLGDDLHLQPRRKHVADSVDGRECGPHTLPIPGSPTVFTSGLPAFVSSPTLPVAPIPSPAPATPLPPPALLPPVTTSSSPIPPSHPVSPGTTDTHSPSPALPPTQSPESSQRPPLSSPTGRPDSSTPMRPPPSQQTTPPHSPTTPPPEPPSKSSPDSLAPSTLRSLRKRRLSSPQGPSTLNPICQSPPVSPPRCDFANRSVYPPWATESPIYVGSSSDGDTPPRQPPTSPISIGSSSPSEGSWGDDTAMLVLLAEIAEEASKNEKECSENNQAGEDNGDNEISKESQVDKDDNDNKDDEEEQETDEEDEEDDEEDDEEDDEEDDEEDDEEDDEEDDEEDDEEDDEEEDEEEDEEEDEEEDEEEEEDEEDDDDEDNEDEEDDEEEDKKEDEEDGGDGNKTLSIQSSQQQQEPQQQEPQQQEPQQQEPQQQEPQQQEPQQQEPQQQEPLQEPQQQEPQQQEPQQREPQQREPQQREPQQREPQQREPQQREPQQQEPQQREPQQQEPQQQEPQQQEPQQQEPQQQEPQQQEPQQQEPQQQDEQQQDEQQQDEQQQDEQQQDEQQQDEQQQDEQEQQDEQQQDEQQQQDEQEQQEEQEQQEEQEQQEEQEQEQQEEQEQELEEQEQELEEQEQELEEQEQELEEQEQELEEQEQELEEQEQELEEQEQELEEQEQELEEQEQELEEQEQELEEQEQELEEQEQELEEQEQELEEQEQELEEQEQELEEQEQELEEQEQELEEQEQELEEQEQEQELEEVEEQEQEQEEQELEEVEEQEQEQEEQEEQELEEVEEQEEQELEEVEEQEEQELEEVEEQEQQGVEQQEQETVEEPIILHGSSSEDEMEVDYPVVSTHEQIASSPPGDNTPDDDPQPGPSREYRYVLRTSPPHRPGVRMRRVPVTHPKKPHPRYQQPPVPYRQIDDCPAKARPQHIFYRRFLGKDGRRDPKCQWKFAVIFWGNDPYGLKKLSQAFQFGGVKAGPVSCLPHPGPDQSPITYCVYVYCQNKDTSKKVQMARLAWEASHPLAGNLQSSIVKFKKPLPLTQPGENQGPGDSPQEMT

Insulin-degrading enzyme = biological target: T1, Insulin-degrading enzyme (Homo sapiens, UniProt P14735); test: activators of recombinant IDE enzyme, dose response, counter-screen for IDE activator project, biochemical, fluorescence polarization (AID 588681)
T1 sequence (P14735 whole entry): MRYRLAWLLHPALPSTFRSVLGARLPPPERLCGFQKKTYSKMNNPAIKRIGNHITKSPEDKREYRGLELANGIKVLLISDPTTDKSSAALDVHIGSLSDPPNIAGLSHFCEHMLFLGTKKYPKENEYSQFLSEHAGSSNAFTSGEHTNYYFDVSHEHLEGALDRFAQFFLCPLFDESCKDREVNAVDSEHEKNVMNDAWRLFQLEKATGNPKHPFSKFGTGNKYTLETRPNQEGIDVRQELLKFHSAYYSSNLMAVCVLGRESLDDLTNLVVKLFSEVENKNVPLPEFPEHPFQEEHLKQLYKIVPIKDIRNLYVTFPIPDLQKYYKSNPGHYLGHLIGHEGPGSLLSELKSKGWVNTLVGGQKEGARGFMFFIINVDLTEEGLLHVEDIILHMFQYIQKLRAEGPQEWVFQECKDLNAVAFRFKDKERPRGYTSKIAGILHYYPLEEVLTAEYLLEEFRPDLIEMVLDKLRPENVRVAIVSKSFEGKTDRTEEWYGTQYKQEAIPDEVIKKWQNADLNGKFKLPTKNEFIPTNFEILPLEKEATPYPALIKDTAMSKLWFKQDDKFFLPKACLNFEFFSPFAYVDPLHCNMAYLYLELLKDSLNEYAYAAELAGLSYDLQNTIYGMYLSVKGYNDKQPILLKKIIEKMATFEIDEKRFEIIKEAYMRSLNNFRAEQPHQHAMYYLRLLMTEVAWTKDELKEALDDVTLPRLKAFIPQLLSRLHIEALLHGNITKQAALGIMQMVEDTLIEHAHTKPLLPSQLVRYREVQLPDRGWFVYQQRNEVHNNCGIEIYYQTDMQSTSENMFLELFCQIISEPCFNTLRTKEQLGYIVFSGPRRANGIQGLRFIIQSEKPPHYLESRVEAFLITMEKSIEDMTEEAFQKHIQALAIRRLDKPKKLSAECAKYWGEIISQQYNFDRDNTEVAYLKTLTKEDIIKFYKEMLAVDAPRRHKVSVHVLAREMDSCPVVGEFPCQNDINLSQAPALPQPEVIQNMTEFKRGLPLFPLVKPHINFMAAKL

[5] = biological target: SWI/SNF-related matrix-associated actin-dependent regulator of chromatin subfamily A member 2 (Homo sapiens, UniProt P51531); test: Luminescence-based cell-based high throughput dose response assay to identify activators of the function of SWI/SNF related, matrix associated, actin dependent regulator of chromatin, subfamily a, member 2 (SMARCA2, BRM).; assay type: functional
Chain of SWI/SNF-related matrix-associated actin-dependent regulator of chromatin subfamily A member 2 (P51531 whole entry): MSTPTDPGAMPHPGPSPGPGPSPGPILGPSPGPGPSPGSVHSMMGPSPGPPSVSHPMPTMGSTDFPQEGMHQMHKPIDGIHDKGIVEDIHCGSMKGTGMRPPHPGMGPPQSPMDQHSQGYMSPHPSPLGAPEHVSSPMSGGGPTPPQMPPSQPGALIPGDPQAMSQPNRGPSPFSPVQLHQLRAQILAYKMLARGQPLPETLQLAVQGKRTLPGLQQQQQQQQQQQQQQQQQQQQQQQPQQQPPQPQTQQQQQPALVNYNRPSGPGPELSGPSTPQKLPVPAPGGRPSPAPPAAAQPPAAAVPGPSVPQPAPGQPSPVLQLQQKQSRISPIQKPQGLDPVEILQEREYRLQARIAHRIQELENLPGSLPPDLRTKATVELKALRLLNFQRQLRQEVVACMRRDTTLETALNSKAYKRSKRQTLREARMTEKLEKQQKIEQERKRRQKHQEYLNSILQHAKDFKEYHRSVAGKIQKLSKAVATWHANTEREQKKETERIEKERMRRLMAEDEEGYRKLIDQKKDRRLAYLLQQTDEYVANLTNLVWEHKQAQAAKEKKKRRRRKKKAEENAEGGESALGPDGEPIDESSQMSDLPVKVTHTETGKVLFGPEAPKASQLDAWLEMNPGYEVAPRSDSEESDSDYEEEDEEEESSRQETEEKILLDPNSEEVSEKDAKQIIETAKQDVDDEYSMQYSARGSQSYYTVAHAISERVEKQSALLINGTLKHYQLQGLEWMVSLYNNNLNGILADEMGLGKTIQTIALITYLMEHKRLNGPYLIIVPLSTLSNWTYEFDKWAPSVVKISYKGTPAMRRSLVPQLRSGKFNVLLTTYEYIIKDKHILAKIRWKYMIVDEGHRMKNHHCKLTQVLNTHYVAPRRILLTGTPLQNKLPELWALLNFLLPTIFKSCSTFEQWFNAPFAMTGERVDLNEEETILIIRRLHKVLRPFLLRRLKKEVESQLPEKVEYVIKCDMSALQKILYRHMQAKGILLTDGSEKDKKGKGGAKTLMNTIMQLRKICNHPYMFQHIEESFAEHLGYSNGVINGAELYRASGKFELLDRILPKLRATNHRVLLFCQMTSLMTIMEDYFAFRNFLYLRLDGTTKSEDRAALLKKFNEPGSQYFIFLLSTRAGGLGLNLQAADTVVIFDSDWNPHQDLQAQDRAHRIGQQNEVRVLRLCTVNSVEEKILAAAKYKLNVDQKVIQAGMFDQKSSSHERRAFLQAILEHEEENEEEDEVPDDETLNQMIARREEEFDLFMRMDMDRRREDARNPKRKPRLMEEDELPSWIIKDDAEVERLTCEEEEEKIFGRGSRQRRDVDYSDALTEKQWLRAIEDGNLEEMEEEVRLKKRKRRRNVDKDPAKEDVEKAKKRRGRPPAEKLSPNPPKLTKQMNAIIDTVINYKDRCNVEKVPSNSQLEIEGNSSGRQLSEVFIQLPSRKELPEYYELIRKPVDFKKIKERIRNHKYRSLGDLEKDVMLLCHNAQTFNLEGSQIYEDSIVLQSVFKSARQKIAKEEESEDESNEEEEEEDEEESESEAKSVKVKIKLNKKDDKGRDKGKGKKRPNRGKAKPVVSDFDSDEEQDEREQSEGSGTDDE

Hexokinase HKDC1 = biological target: T2, Hexokinase HKDC1 (Homo sapiens, UniProt Q2TB90); test: HKDC1 hexokinase inhibitors, SAR follow-up, biochemical, set 2 (AID 588355); assay type: functional
T2 sequence (Q2TB90 whole entry): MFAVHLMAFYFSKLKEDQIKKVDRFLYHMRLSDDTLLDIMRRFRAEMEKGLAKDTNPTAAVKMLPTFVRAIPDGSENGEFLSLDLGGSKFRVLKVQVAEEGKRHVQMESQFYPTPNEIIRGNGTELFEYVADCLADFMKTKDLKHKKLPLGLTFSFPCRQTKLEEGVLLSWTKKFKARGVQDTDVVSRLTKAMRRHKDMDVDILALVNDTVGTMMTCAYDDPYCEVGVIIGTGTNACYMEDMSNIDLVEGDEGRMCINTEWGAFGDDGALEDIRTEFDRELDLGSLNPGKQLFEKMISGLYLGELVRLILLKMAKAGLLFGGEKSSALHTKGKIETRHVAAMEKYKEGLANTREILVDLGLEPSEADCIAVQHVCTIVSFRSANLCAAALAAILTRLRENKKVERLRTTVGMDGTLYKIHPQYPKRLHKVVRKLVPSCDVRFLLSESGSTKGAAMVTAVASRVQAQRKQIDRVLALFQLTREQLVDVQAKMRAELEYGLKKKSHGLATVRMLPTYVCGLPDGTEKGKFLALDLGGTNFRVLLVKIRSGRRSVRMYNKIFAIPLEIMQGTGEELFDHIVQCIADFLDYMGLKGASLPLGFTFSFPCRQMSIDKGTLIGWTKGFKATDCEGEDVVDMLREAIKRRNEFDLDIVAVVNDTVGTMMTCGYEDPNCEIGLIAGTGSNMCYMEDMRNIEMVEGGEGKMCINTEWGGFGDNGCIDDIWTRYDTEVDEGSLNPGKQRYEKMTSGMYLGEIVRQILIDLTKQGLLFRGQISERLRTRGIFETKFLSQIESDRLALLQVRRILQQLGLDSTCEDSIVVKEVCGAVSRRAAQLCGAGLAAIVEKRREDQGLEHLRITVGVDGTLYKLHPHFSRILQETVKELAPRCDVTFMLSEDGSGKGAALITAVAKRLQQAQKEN

Caspase-6 = biological target: T3, Caspase-6 (Homo sapiens, UniProt P55212); test: human caspase-6 inhibitors, dose response, biochemical, VEID-R110 fluorescence, cherry-pick (AID 720632)
T3 sequence (P55212 whole entry): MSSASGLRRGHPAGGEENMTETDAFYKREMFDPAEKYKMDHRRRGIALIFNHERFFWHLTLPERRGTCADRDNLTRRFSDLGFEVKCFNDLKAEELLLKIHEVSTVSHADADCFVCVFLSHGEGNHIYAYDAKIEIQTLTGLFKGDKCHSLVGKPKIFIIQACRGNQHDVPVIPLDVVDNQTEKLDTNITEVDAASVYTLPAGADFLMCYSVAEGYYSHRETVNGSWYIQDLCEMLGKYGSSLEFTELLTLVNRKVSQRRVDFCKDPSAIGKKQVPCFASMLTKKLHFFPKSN

## CCCCC(=O)NC(c1ccco1)c1cc(Cl)c2cccnc2c1O (stereo unspecified)
[1]
  AC50: 3.33 µM (active)

## CCCCC(=O)NC(c1ccc(Cl)cc1)c1ccc2cccnc2c1O (stereo unspecified)
cells
  EC50: 3.81 µM (active)
HEK293
  IC50: 4.57 µM (active)
[2]
  AC50: 1.71 µM (active)
[3]
  AC50: 0.909 µM (active)

## COc1ccc2noc3c2c1C(=O)c1ccccc1-3
[4]
  AC50: > 500 µM (inactive)
ORF 73
  AC50: 0.228 µM (active)
Insulin-degrading enzyme
  EC50: > 54.7 µM (inactive)
[5]
  EC50: > 91.2 µM (inactive)

## CCc1ccc2c(c1)C(NC(C)=O)C(=O)N2CCN1CCOCC1 (stereo unspecified)
Hexokinase HKDC1
  IC50: 7.56 µM (active)
Caspase-6
  AC50: 11.9 µM (active)
